Key:
[1] = biological target: T1, BACE2 (Homo sapiens, UniProt Q9Y5Z0); test: BACE2 biochemical FRET based assay (Test Example 2-4); conditions: recombinant BACE2 0.4 μg/mL, 10 μM substrate, 450 minutes, pH 5.0; read-out: BACE2 Biochemical FRET based assay pIC50 (converted)
T1 sequence (Q9Y5Z0 63-518): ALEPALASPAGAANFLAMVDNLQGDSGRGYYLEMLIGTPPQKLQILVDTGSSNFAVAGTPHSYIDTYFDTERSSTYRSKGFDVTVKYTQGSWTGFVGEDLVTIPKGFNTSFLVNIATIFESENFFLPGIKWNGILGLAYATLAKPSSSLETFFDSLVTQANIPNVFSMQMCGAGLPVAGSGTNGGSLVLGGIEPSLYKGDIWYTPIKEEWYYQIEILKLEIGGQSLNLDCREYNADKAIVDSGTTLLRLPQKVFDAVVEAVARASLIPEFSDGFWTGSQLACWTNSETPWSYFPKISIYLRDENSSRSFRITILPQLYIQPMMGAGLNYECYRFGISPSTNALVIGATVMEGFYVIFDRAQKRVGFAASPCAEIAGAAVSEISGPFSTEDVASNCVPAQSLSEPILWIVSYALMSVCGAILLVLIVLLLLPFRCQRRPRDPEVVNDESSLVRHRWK
From the text: (§1) This assay is a Fluorescence Resonance Energy Transfer Assay (FRET) based assay. The substrate for this assay contains the ‘Swedish’ Lys-Met/Asn-Leu mutation of the amyloid precursor protein (APP) beta-secretase cleavage site. This substrate also contains two fluorophores: (7-methoxycoumarin-4-yl) acetic acid (Mca) is a fluorescent donor with excitation wavelength at 320 nm and emission at 405 nm and 2,4-dinitrophenol (Dnp) is a proprietary quencher acceptor. […] Upon cleavage by the beta-secretase, the fluorophore Mca is separated from the quenching group Dnp, restoring the full fluorescence yield of the donor. The increase in fluorescence is linearly related to the rate of proteolysis.
Briefly in a 384-well format recombinant BACE2 protein in a final concentration of 0.4 μg/mL is incubated for 450 minutes at room temperature with 10 μM substrate in incubation buffer (final concentrations: 33.3 mM Citrate buffer pH 5.0, 0.033% PEG, 2% DMSO) in the absence or presence of compound. Next the amount of proteolysis is directly measured by fluorescence measurement at T=0 and T=450 (excitation at 320 nm and emission at 405 nm). Results are expressed in RFU (Relative Fluorescence Units), as difference between T450 and TO.
(§2) Data are analysed using Screener (Registered trademark) (Genedata, Switzerland). Data were normalized and % inhibition=100−[(sample−LC)/(HC−LC))*100], was plotted versus the log concentration of the test compound. Curves were analysed using non-linear regression analysis and IC50 values (inhibitory concentration causing 50% inhibition of activity) were derived from individual curves.
(§3) LC=Median of the low control values
(§4) =Low control: Reaction without enzyme
(§5) HC=Median of the High control values
(§6) =High Control: Reaction with enzyme
(§7) % Inhibition=100−[(sample−LC)/(HC−LC)*100]

[2] = tested on: Abeta 1-37, Abeta 1-38, Abeta 1-40 and Abeta 1-42 in cerebrospinal fluid (CSF); test: Pharmacology in the beagle dog, beta-amyloid profile in CSF (Test Example 18-2); assay type: in vivo; conditions: single dose 0.63 mg/kg
Protocol: Test compounds were tested to evaluate the effect on the beta-amyloid profile in cerebrospinal fluid (CSF) of dogs after a single dose, in combination with pharmacokinetic (PK) follow up and limited safety evaluation.
For each of compound II-6 or II-10, four beagle dogs (2 males, 2 females) were dosed with vehicle (1 mL/kg of an aqueous solution of 20% cyclodextrin) and 12 beagle dogs (2 males and 2 females per dosage group) were dosed with test compounds as follows:
In the case of compounds II-2, II-3 and II-18, two beagle dogs (1 male, 1 female) were dosed with vehicle (1 mL/kg of an aqueous solution of 20% cyclodextrin) and 4 beagle dogs (2 males and 2 females) were dosed with test compound (II-2, II-3, or II-18) at the doses indicated in the following Table in an aqueous 20% cyclodextrin solution with a concentration in mg/mL identical to the dose given in mg/kg) on an empty stomach.
CSF was taken in conscious animals directly from the lateral ventricle via a cannula which was screwed in the skull and covered with subcutaneous tissue and skin, before and at 4, 8, 25 and 49 hours after dosing. Eight hours after dosing the animals got access to their regular meal for 30 minutes. Blood was taken for PK follow up (0.5, 1, 2, 4, 8, 25 and 49 hours) and serum samples for biochemistry were taken before and at 8 and 25 h after dosing. The CSF samples were used for measurement of Abeta 1-37, Abeta 1-38, Abeta 1-40 and Abeta 1-42.

[3] = biological target: T2, BACE1 (Homo sapiens, UniProt P56817); test: BACE1 biochemical FRET based assay - Method 1 (Test Example 2-2); conditions: 0.04 μg/mL BACE1, 450 minutes, Citrate buffer pH 5.0, read-out: BACE1 Biochemical FRET based assay - Method 1 PIC50 (converted)
T2 sequence (P56817 46-501): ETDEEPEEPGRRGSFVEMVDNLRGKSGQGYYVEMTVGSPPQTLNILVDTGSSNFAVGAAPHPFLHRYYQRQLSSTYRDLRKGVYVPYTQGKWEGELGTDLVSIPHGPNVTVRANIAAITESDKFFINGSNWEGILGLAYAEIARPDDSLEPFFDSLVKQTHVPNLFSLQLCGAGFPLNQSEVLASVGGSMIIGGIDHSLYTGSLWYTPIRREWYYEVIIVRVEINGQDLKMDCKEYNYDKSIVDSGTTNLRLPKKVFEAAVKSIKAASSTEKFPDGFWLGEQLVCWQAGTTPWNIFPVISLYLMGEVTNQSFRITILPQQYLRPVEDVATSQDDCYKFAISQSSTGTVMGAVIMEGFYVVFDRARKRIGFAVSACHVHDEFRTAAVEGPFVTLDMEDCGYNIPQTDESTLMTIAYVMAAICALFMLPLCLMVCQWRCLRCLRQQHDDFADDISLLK
From the text: as §1, with “this assay is an APP derived 13 amino acids peptide that contains the” for “this assay contains the”, “protein (APP) beta-site secretase cleavage site.” for “protein (APP) beta-secretase cleavage site.”, “cleavage by BACE1, the fluorophore” for “cleavage by the beta-secretase, the fluorophore”
Briefly in a 384-well format recombinant BACE1 protein in a final concentration of 0.04 μg/mL is incubated for 450 minutes at room temperature with […] substrate in incubation buffer (final concentrations: 33.3 mM Citrate buffer pH 5.0, 0.033% PEG, 3% DMSO) in the absence or presence of compound. Next the amount of proteolysis is directly measured by fluorescence measurement at T=0′-120′ and T=450′ (excitation at 320 nm and emission at 405 nm). Results are expressed in RFU (Relative Fluorescence Units), as difference between T450 and Tx (Tx is chosen depending on the reaction speed between 0 and 120 minutes.).
as §2, §3, §4, §5, §6, §7

[4] = biological target: T2, BACE1; test: BACE1 cellular αLisa assay in SKNBE2 cells, Abeta 1-42 (Test Example 2-3); assay type: cell-based; design: endogenous in cells; host or cells: SKNBE2 human neuroblastoma cells expressing hAPP695; conditions: SKNBE2 cells expressing hAPP695, 18 hours incubation, read-out: Cellular αLisa assay in SKNBE2 cells Abeta 42 pIC50 (converted)
Protocol: In two αLisa assays the levels of Abeta 1-42 or Abeta total produced and secreted into the medium of human neuroblastoma SKNBE2 cells are quantified. The assays are based on the human neuroblastoma SKNBE2 expressing the wild type Amyloid Precursor Protein (hAPP695). The compounds are diluted and added to these cells, incubated for 18 hours and then measurements of Abeta 1-42 or Abeta total are taken. Abeta 1-42 or Abeta total are measured by sandwich αLisa using biotinylated antibody AbN/25 attached to streptavidin coated donor beads and antibody cAb42/26 or Ab 4G8 conjugated acceptor beads for the detection of Abeta 1-42 or Abeta total respectively. In the presence of Abeta 1-42 or Abeta total, the beads come into close proximity. The excitation of the donor beads provokes the release of singlet oxygen molecules that trigger a cascade of energy transfer in the acceptor beads, resulting in light emission. Light emission is measured after 1 h incubation (excitation at […] and emission at 615 nm).
as §2
LC=Median of the low control values • =Low control: Reaction without enzyme
HC=Median of the High control values • =High Control: Reaction with enzyme
as §7

CC1(S(C)(=O)=O)CCC(CF)(c2cc(NC(=O)c3cc4c(cn3)OC(F)(F)O4)cc(F)c2F)N=C1N (stereo not drawn) [II-18]
IC50 [1]: 240 nM
% Decrease in Abeta 1-42 at 8 h post dosing compared to own baseline ([2]; 8 h): 53%
% Decrease in Abeta 1-42 at 24 h^(a) or 25 h^(b) post dosing compared to own baseline ([2]; 24 h or 25 h): 27%
melting point: 195 °C
IC50 [3]: 3.24 nM
IC50 [4]: 4.47 nM

Source: patent publication US20210261561A1, “BICYCLIC HETEROCYCLE DERIVATIVES HAVING SELECTIVE BACE1 INHIBITORY ACTIVITY” (SHIONOGI & CO., LTD., priority 2018, published 2021)
